Holding throughout (assay type): binding
The target in one assay is T1, LTB4R (Homo sapiens, UniProt Q15722).
T1 construct: purchased Promega (in-house HiBiT-GPCR construct library, NanoBRET)
Description: NanoBRET screen HiBiT-LTB4R in HEK293. As for the experimental part:
(§1) Each tracer candidate was screened across the entire library of HiBiT-GPCR constructs using NanoBRET as the detection modality. As depicted in Figure 4A, the specificity of interactions was evaluated through decrease in BRET due to competitive displacement of a bound tracer by excess parental compound. Each tracer was analyzed for binding to each HiBiT-GPCR fusion in the absence and in the presence of competing parental compound. Briefly, HEK293 cells were transfected with HiBiT-GPCR constructs diluted into promoterless DNA to reduce expression and maximize translocation to the cell surface. Each tracer candidate was then screened at concentrations of 1 μM and 0.1 μM across cells expressing these fusions. Cells were treated for 1.5 h with tracer either alone or in the presence of 20 μM competing parental compound (i.e., control). BRET was measured upon addition of purified LgBiT and subsequent complementation with HiBiT genetically fused to a GPCR. The specificity of interactions was assessed through a decrease in BRET signal due to competitive displacement of the bound tracer. To further gauge the robustness of these interactions, the fold response over the control (i.e., BRETtracer/BRETcontrol) was calculated. We chose a 1.5-fold response, which translates to ≥7-fold signal over noise as the minimal threshold required to score an interaction as positive. […]. Below we highlight the screening results obtained for our exemplary fluorescent tracers based on Clozapine, Amitriptyline and AZD1283.
(§2) HiBiT-GPCR DNA constructs were diluted in 10 mM Tris pH 8 to a final concentration of 0.01 μg/μL, arrayed in 96-well plates and stored at −20 °C. For transfection, HEK293 cells were suspended in Opti-MEM (without phenol red) supplemented with 2% fetal bovine serum (Seradigm) and 100 units/mL penicillin–streptomycin (Gibco) at a final concentration of 220,000 cells/mL and dispensed into white 96-well plates at 90 μL/well. Subsequent transfections and screens were carried using an Agilent Bravo Automated Liquid Handling Platform. First, the 96-well HiBiT DNA arrays were diluted 25-fold in Opti-MEM (without serum or phenol red) to a final concentration of 0.0004 μg/μL and 20 μL of the diluted DNAs were transferred into new 96-well plates. Next, promoterless carrier DNA (1 μg/μL) was diluted 25-fold (0.04 μg/μL) and then dispensed into the diluted arrays at 20 μL/well. Following brief mixing, Viafect transfection reagent (Promega) diluted 16-fold into Opti-MEM was dispensed into the plates at 40 μL/well. After mixing by pipetting, plates were incubated for 10 min on the pipetting station deck. The DNA-transfection reagent complexes were then added to plates containing cells. To facilitate the screen, 10 μL of DNA-transfection reagent complexes were added in duplicates to the top 4 and bottom 4 rows, resulting in two identical 48-well arrays per plate. Plates with transfected cells were incubated for 18–20 h at 37 °C/5% CO2. A screen of each tracer across the entire library using two different concentrations requires duplicate plates of transfected cells. Depending on the number of tracers being screened, transfections can be scaled up using the same ratios. The next day, for each tracer, four 20× screening solutions in tracer dilution buffer (Promega) were prepared: two duplicates at final concentration of 20 μM and two duplicates at a final concentration of 2 μM. A competing unmodified compound was added to one of each duplicate at a final concentration of 400 μM. The four resulting solutions were diluted 4-fold in Opti-MEM without serum or phenol red to generate 5× solutions (5 µM and 0.5 µM tracer +/− 100 μM competing compound). To screen the library, a BioTek MultiFlo FX liquid dispenser was used to dispense 22.5 µL of tracer solution to the top 4 rows and 22.5 µL tracer + competing compound solution to the 4 bottom rows. Plates were briefly mixed on an orbital shaker and incubated for 1.5 h at room temperature. […]

A further assay deals with T2, LGR6 (Homo sapiens, UniProt Q9HBX8).
T2 construct: purchased Promega (in-house HiBiT-GPCR construct library, NanoBRET)
T2 sequence (Q9HBX8 25-967): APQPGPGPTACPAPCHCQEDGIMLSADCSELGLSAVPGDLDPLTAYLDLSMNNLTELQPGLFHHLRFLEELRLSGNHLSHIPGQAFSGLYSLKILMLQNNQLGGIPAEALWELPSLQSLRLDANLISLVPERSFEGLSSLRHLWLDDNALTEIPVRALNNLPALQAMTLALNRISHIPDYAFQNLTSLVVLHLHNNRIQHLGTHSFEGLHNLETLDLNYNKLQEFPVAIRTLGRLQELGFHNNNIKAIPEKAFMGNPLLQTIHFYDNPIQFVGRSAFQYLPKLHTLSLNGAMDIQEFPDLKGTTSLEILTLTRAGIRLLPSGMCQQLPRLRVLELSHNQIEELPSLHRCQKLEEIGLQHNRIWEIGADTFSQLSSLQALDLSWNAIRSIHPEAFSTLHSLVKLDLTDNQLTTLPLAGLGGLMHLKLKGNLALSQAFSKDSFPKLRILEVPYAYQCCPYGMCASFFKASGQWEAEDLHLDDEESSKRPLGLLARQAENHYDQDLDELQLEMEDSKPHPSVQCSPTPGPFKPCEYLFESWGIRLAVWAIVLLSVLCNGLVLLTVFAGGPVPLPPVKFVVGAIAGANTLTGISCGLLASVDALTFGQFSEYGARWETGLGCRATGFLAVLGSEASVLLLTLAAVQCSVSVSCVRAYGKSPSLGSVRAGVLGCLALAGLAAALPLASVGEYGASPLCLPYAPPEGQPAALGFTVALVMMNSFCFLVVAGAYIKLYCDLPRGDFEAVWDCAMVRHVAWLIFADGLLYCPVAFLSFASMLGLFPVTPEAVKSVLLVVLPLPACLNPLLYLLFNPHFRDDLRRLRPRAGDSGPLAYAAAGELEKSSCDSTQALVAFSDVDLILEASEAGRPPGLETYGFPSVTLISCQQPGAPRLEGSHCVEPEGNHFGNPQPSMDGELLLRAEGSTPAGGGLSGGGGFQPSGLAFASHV
Description: NanoBRET screen HiBiT-LGR6 in HEK293. The method, then: as §1, §2
On the technique in general: Bioluminescence resonance energy transfer reports proximity on the nanometre scale.

For the next assay, the target named is T3, CCR3 (Homo sapiens, UniProt P51677).
T3 construct: purchased Promega (in-house HiBiT-GPCR construct library, NanoBRET)
T3 sequence (P51677 1-355): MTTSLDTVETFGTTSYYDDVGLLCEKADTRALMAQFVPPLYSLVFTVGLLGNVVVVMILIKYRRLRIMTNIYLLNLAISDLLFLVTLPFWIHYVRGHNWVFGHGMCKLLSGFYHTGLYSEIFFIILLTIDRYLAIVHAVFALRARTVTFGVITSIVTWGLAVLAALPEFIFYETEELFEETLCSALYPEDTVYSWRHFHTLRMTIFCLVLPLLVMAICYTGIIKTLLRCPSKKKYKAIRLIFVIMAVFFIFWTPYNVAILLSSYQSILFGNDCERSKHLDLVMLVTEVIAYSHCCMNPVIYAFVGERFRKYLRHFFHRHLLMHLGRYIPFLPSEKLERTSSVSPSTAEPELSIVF
Description: NanoBRET screen HiBiT-CCR3 in HEK293. As for the experimental part: as §1, §2

For a further assay, the target named is T4, HTR1B (Homo sapiens, UniProt P28222).
T4 construct: purchased Promega (in-house HiBiT-GPCR construct library, NanoBRET)
T4 sequence (P28222 whole entry): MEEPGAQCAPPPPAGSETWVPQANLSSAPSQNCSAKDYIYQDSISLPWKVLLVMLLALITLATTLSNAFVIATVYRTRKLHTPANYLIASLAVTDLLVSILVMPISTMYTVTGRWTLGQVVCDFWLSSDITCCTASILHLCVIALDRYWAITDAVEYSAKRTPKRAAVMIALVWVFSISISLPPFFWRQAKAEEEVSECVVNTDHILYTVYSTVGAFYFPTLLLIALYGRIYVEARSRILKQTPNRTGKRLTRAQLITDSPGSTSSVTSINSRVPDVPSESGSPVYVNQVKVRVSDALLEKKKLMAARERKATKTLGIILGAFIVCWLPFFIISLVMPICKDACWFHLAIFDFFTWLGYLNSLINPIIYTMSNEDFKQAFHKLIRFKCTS
Description: NanoBRET screen HiBiT-HTR1B in HEK293. As for the experimental part:
as §1, §2

T1 sequence (Q15722 whole entry): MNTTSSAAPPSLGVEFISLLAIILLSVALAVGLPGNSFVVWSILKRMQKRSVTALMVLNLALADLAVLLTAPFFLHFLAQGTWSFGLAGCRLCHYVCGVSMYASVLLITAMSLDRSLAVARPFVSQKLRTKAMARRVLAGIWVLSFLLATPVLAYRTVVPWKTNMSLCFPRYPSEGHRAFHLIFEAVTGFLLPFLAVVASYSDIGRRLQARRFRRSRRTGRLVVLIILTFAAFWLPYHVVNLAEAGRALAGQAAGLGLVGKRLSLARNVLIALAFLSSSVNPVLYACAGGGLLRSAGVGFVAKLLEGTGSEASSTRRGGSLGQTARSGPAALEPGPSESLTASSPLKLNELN

As for `O=C(CCc1ccc2n1[B-](F)(F)[N+]1=C(c3ccc[nH]3)C=CC1=C2)NCc1ccc(C(=O)NCCOCCC(=O)N[C@@H]2CC[C@@]3(O)[C@H]4Cc5ccc(O)c6c5[C@@]3(CCN4CC3CC3)[C@H]2O6)cc1` [Naltrexone-3-NB590], the “NanoBRET Fold Response” value came to 0.68 at LTB4R (LTB4R, tracer 0.1μM); 1.06 on LTB4R (LTB4R, tracer 1μM); 1.22 on LGR6 (LGR6, tracer 0.1μM); 0.79 on LGR6 (LGR6, tracer 1μM); 1.35 on CCR3 (CCR3, tracer 0.1μM); 0.89 at CCR3 (CCR3, tracer 1μM). Further, the “NanoBRET Fold Response” value at HTR1B (HTR1B, tracer 0.1μM) stood at 1.01; at HTR1B (HTR1B, tracer 1μM), 1.33.
For `CN1CCN(C2=Nc3cc(Cl)ccc3N(CC(=O)NCCOCCOCCOCCOCCNC(=O)CCc3ccc4n3[B-](F)(F)[N+]3=C(c5ccc[nH]5)C=CC3=C4)c3ccccc32)CC1` [Clozapine-c-2-NB590], the “NanoBRET Fold Response” value on LTB4R (LTB4R, 0.1μM tracer) is given as 1.05; on LTB4R (LTB4R, 1μM tracer) it was 0.95; on LGR6 (LGR6, 0.1μM tracer) it was 0.89; on LGR6 (LGR6, 1μM tracer), 0.91; at CCR3 (CCR3, 0.1μM tracer), 0.97; on CCR3 (CCR3, 1μM tracer), 0.85. Besides, the “NanoBRET Fold Response” value amounted to 0.95 on HTR1B (HTR1B, 0.1μM tracer) and 1.47 at HTR1B (HTR1B, 1μM tracer).
For `O=C(CCOCCOCCOCCOCCNC(=O)CCc1ccc2n1[B-](F)(F)[N+]1=C(c3ccc[nH]3)C=CC1=C2)NCCCN1CCN(C2=Nc3cc(Cl)ccc3Nc3ccccc32)CC1` [Clozapine-a-2-NB590], the “NanoBRET Fold Response” value came to 1.05 at LTB4R (LTB4R, 0.1μM tracer); 0.94 at LTB4R (LTB4R, 1μM tracer); 1.03 at LGR6 (LGR6, 0.1μM tracer); 0.66 at LGR6 (LGR6, 1μM tracer); 0.95 on CCR3 (CCR3, 0.1μM tracer); 0.78 on CCR3 (CCR3, 1μM tracer). Moreover, the “NanoBRET Fold Response” value came out at 4.16 at HTR1B (HTR1B, 0.1μM tracer) and 2.29 on HTR1B (HTR1B, 1μM tracer).
In the case of `CCOC(=O)c1cc(C#N)c(N2CCC(C(=O)NS(=O)(=O)Cc3ccccc3/C=C/C(=O)NCCNC(=O)CCc3ccc4n3[B-](F)(F)[N+]3=C(c5ccc[nH]5)C=CC3=C4)CC2)nc1C` [AZD1283-1-NB590], the “NanoBRET Fold Response” value was 1.16 at LTB4R (LTB4R, 0.1μM); 1.16 on LTB4R (LTB4R, 1μM); 1.27 at LGR6 (LGR6, 0.1μM); 0.90 on LGR6 (LGR6, 1μM); 0.96 at CCR3 (CCR3, 0.1μM); 1.02 at CCR3 (CCR3, 1μM). Further, the “NanoBRET Fold Response” value worked out at 0.89 at HTR1B (HTR1B, 0.1μM) and 0.99 on HTR1B (HTR1B, 1μM).
Turning to `COc1ccc2[nH]c(-c3ccc(CNC(=O)CCOCCOCCOCCOCCNC(=O)CCc4ccc5n4[B-](F)(F)[N+]4=C(c6ccc[nH]6)C=CC4=C5)cc3)c(CCNC(C)=O)c2n1` [AzomelatoninICO9-2-NB590], the “NanoBRET Fold Response” value came to 1.07 at LTB4R (0.1μM tracer); 0.99 on LTB4R (1μM tracer); 0.62 on LGR6 (0.1μM tracer); 0.95 on LGR6 (1μM tracer); 1.40 on CCR3 (0.1μM tracer); 1.25 on CCR3 (1μM tracer). In addition, the “NanoBRET Fold Response” value on HTR1B (0.1μM tracer) came to 0.92; on HTR1B (1μM tracer) it was 1.13.
Take `CCCn1c(=O)c2[nH]c(-c3ccc(OCC(=O)NCCNC(=O)CCOCCNC(=O)c4ccc(CNC(=O)CCc5ccc6n5[B-](F)(F)[N+]5=C(c7ccc[nH]7)C=CC5=C6)cc4)cc3)nc2n(CCC)c1=O` [XAC-3-NB590]: the “NanoBRET Fold Response” value on LTB4R (LTB4R, tracer 0.1μM) was determined as 1.09; at LTB4R (LTB4R, tracer 1μM), 1.11; on LGR6 (LGR6, tracer 0.1μM), 0.99; at LGR6 (LGR6, tracer 1μM), 0.90; on CCR3 (CCR3, tracer 0.1μM), 1.28; at CCR3 (CCR3, tracer 1μM) it was 0.79. Further, the “NanoBRET Fold Response” value was determined as 0.66 at HTR1B (HTR1B, tracer 0.1μM) and 1.24 on HTR1B (HTR1B, tracer 1μM).
As to `COc1ccccc1N1CCN(CCCCN2C(=O)c3ccc(CNC(=O)CCOCCNC(=O)c4ccc(CNC(=O)CCc5ccc6n5[B-](F)(F)[N+]5=C(c7ccc[nH]7)C=CC5=C6)cc4)cc3C2=O)CC1` [NAN-190-3-NB590], the “NanoBRET Fold Response” value at LTB4R (LTB4R, tracer 0.1μM) was determined as 1.02; on LTB4R (LTB4R, tracer 1μM), 1.09; on LGR6 (LGR6, tracer 0.1μM), 1.39; at LGR6 (LGR6, tracer 1μM), 0.60; at CCR3 (CCR3, tracer 0.1μM), 1.02; on CCR3 (CCR3, tracer 1μM) it was 1.02. The “NanoBRET Fold Response” value at HTR1B (HTR1B, tracer 0.1μM) was 1.38; on HTR1B (HTR1B, tracer 1μM) it was 1.42.
For the compound `N#CN/C(=N\CCNC(=O)c1ccc(N)cc1)NCCCOc1cccc(CN2CCCCC2)c1` [Aminopotentidine (unmodified)], the “NanoBRET Fold Response” value at HTR1B (HTR1B, other tracers/Aminopotentidine (unmodified), 0.1μM) is listed as 1.50; on HTR1B (HTR1B, other tracers/Aminopotentidine (unmodified), 1μM), 1.48.
`COc1ccccc1N1CCN(CCCCN2C(=O)c3ccc(CNC(=O)CCOCCOCCOCCOCCNC(=O)CCc4ccc5n4[B-](F)(F)[N+]4=C(c6ccc[nH]6)C=CC4=C5)cc3C2=O)CC1` [NAN-190-2-NB590]: the “NanoBRET Fold Response” value at LTB4R (LTB4R, tracer 1μM) stood at 0.96; at CCR3 (CCR3, tracer 0.1μM) it was 1.08; at CCR3 (CCR3, tracer 1μM), 1.11; on HTR1B (HTR1B, tracer 0.1μM) it was 1.73; on HTR1B (HTR1B, tracer 1μM), 1.25.

These data come from publication PMC8151276, “An Integrated Approach toward NanoBRET Tracers for Analysis of GPCR Ligand Engagement” (Molecules, 2021).
